From patent US9790253B2, “OSW-1 analogs and conjugates, and uses thereof” (priority 2011, dated 2017)
Numbering of substitutions follows the chain as printed.

Experiments:
OSBP1(M446W) = molecular target: T1, OSBP1(M446W) (Homo sapiens, UniProt P22059, M446W); assay: [3H]-25-OHC binding, OSBP1(M446W) mutant; conditions: for binding affinity for OSBP1(M446W) compared to wt OSBP1-myc-his: [3H]-25-OHC competition binding
T1 construct: made in house; host or cells: HEK-293T (transient transfection; S100 lysate, not purified)
T1 sequence (P22059 1-807 M446W): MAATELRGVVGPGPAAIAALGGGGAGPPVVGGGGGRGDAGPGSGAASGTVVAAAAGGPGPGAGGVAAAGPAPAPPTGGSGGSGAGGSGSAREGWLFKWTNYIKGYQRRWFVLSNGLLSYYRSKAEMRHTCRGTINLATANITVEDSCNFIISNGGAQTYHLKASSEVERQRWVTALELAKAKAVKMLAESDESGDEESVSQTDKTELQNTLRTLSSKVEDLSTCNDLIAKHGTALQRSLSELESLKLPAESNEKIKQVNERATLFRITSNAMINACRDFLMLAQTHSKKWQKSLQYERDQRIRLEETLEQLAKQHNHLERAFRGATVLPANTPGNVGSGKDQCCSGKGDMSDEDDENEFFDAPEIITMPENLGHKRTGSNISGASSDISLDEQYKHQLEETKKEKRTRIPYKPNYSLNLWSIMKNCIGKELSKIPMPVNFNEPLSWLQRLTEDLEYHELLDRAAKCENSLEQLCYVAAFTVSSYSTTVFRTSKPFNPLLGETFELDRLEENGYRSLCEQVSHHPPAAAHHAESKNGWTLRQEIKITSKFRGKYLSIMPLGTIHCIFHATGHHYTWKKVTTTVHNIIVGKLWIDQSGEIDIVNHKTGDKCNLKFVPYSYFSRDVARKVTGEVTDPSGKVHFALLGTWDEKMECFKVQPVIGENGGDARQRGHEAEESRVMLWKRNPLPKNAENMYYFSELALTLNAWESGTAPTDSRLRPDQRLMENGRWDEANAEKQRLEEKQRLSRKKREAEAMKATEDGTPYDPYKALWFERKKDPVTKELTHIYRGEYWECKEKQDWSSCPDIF
Procedure: (§1) [^3H]-25-Hydroxycholesterol charcoal-dextran binding assay.
(§2) The binding affinity of 1, 2 and 4a to the OSBP1(M446W) and OSBP1(V582M) mutants were then determined using [^3H]-25-OHC competition binding. […] Within error limits, the binding affinity of 1, 2 and 4a for these two OSBP1 mutants were unchanged compared to wt OSBP1-myc-his (FIG. 4D).

OSBP1(V582M) = molecular target: T2, OSBP1(V582M) (Homo sapiens, UniProt P22059, V582M); assay: [3H]-25-OHC binding, OSBP1(V582M) mutant; conditions: for binding affinity for OSBP1(V582M) compared to wt OSBP1-myc-his: [3H]-25-OHC competition binding
T2 construct: made in house; host or cells: HEK-293T (transient transfection; S100 lysate, not purified)
T2 sequence (P22059 1-807 V582M): T1 sequence (P22059 1-807 M446W) with W446M, V582M
Procedure: as §1, §2

[1] = test system: HCT-116 p21^−/− cells with OSBP1-targeting shRNA; assay: OSBP1 shRNA knockdown/dose-shift experiment; assay type: cell-based, human; conditions: shOSBP1 vs shNT, 72 h
Source text: FIG. 3A is a series of four bar graphs depicting knockdown/dose-shift experiment in HCT-116 p21^−/− cells stably transfected with either OSBP1-targeting shRNA (shOSBP1) or non-targeting shRNA (shNT). Bars represent s.d. of three or four individual experiments. * P=0.0002 (n=3); ** P=0.0006 (n=4); *** P=0.0003 (n=3) compared to shNT cells (two-tailed students t-test).
To ascertain if the antiproliferative activity of the ORPphilins depended on the levels of OSBP1 and ORP4L in cells, short hairpin RNA (shRNA) knockdown of OSBP1 expression was performed and then its effect on the growth inhibitory activity of 1, 2, and 4a measured. […] Similar results were obtained in HeLa cells. Overexpression of OSBP1-myc-his or ORP4L-myc-his (FIG. 3C) for 48 h desensitized HeLa cells to the antiproliferative activity of 1, 2, or 4a by ˜2-5-fold (FIG. 3D). However, taxol-induced growth inhibition was not affected by overexpression of OSBP1-myc-his or ORP4L-myc-his (FIG. 3D).

[2] = test system: HeLa cells overexpressing OSBP1(M446W)-myc-his; assay: Overexpression-viability assay, OSBP1(M446W)-myc-his; assay type: cell-based; conditions: 48 h
Procedure: (§3) Overexpression-viability assays with wild-type and mutant OSBP/ORP4L constructs were carried out by transfecting HeLa cells with the appropriate plasmids using Lipofectamine™ LTX with PLUS™ reagent (Invitrogen) as instructed, and after 8 h of transfection, the cells were re-plated for the cell viability assay, performed as described above. Expression levels were evaluated by immunoblotting at the time of dosing.
(§4) For additional support that OSBP1 and ORP4L are targets of the ORPphilins, dominant drug-resistant alleles of these proteins were sought. 15 OSBP1 residues inside and outside the region of the protein previously reported to mediate sterol binding were mutated (FIG. 4C). The growth inhibition induced by the ORPphilins was determined in HeLa cells overexpressing either wild-type or mutant OSBP1-myc-his proteins. Expression of wt OSBP1-myc-his and mutant OSBP1-myc-his were nearly equivalent as measured by western blot.
(§5) The same mutant caused a 3.9-fold reduction in the antiproliferative activity of OSW-1 (2) (FIG. 4E2) and a 2.7-fold reduction in the activity of schweinfurthin A (4a) (FIG. 4E3). […] The antiproliferative activity of taxol was unaffected by expression of these two OSBP1 mutant proteins (FIGS. 4E4, 4E8).

[3] = test system: HeLa cells overexpressing OSBP1(V582M); assay: Overexpression-viability assay, OSBP1(V582M)-myc-his; assay type: cell-based; conditions: 48 h
Procedure: as §3, §4, §5

NPC1^−/− (M12) CHO cells = assay: Antiproliferative activity in NPC1-/- (M12) CHO cells; assay type: cell-based

Compound	binding affinity of 25-OHC for OSBP1(M446W) compared to wt (OSBP1(M446W))	25-OHC KD of OSBP1(V582M) compared to wt (OSBP1(V582M))	sensitization by OSBP1 knockdown (GI50 shift) [1]	reduction in antiproliferative activity at the GI50 level, OSBP1(M446W) vs wt OSBP1 [2]	reduction in antiproliferative activity, OSBP1(V582M) vs wt OSBP1 [3]	binding affinity for OSBP1(M446W) compared to wt OSBP1-myc-his (OSBP1(M446W))	binding affinity for OSBP1(V582M) compared to wt OSBP1-myc-his (OSBP1(V582M))	antiproliferative activity in NPC1−/− (M12) CHO cells compared to wt CHO cells (NPC1^−/− (M12) CHO cells)
C[C@H](CCCC(C)(C)O)[C@H]1CC[C@H]2[C@@H]3CC=C4C[C@@H](O)CC[C@]4(C)[C@H]3CC[C@]12C [Compound 25-OHC, 25-hydroxycholesterol]	identical to wt	slightly higher						
COc1ccc(C(=O)O[C@H]2[C@H](O[C@@H]3[C@@H](OC(C)=O)[C@H](O[C@H]4C[C@H]5[C@@H]6CC=C7C[C@@H](O)CC[C@]7(C)[C@H]6CC[C@]5(C)[C@@]4(O)[C@H](C)C(=O)CCC(C)C)OC[C@@H]3O)OC[C@@H](O)[C@@H]2O)cc1 [OSW-1]			6 fold	3.9 fold	did not affect	unchanged	unchanged	no change
C[C@@H]1[C@]2(O[C@H]3C=C4[C@@H]5CC[C@H]6Cc7nc8c(nc7C[C@]6(C)[C@H]5C[C@@H](O)[C@]4(C)[C@]31O)C[C@@H]1CC[C@H]3C4=CC[C@@H]5[C@H](C)[C@@]6(OC[C@]45C(=O)C[C@@H]3[C@@]1(C)C8)OC(C)(C)C[C@H]6O)O[C@](C)(CO)C[C@H]2O [cephalostatin 1, Cephalostatin 1]			4 fold	18 fold	9.4 fold	unchanged	unchanged	no change
schweinfurthin A			9 fold	2.7 fold	did not affect	unchanged	unchanged	no change
